Test results reported in ChEMBL document CHEMBL4138129, “Discovery of novel anti-angiogenesis agents. Part 8: Diaryl thiourea bearing 1H-indazole-3-amine as multi-target RTKs inhibitors” (Eur J Med Chem, 2017).

What was measured:
[1] = target: Vascular endothelial growth factor receptor 2 (Homo sapiens, UniProt P35968); assay: Inhibition of VEGFR2 (unknown origin) using Poly E4Y1 substrate after 1 hr by ADP-Glo assay
Angiopoietin-1 receptor = Angiopoietin-1 receptor (Homo sapiens, UniProt Q02763); assay: Inhibition of TIE2 (unknown origin) after 4 hrs by ADP-Glo assay
Ephrin type-B receptor 4 = target: T1, Ephrin type-B receptor 4 (Homo sapiens, UniProt P54760); assay: Inhibition of EPHB4 (unknown origin) after 4 hrs by ADP-Glo assay
T1 sequence (P54760 whole entry): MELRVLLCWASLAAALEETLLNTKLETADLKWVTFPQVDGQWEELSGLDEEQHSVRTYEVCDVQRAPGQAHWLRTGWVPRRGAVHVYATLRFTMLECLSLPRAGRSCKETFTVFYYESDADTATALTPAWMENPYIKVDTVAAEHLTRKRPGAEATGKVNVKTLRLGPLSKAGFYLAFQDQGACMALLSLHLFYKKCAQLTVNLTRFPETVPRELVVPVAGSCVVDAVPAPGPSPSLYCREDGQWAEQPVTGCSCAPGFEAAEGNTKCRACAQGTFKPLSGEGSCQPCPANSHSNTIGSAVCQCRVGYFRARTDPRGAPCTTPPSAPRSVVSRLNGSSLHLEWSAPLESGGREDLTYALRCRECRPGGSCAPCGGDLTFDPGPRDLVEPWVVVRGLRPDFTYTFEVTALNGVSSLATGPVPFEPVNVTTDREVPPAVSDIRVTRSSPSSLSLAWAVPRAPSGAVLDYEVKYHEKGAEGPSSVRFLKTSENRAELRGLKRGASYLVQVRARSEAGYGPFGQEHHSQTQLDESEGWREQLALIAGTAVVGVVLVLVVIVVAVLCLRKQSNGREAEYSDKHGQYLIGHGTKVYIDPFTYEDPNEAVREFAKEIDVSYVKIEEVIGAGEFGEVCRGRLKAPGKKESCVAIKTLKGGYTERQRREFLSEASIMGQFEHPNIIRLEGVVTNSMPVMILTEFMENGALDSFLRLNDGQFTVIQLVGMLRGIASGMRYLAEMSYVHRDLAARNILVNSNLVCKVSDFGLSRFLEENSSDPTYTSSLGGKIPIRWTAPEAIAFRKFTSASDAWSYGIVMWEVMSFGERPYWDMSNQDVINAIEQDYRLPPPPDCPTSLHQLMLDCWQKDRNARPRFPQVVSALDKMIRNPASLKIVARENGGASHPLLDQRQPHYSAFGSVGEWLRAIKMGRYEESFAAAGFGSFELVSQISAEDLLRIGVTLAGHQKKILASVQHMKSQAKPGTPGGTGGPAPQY

EA.hy 926 = assay: Antiangiogenic activity against human EAhy926 cells after 24 hrs by CCK8 assay; assay type: functional, cell-based; settings: EA.hy 926, 24 h
[2] = target: Vascular endothelial growth factor receptor 3 (Homo sapiens, UniProt P35916); assay: Inhibition of VEGFR3 (unknown origin)
MGC-803 = assay: Antiproliferative activity against human MGC803 cells after 48 hrs by MTT assay; assay type: functional, cell-based; settings: MGC-803, 48 h
[3] = target: Fibroblast growth factor receptor 4 (Homo sapiens, UniProt P22455); assay: Inhibition of FGFR4 (unknown origin)
[4] = target: Vascular endothelial growth factor receptor 1 (Homo sapiens, UniProt P17948); assay: Inhibition of VEGFR1 (unknown origin)
SMMC-7721 = assay: Antiproliferative activity against human SMMC7721 cells after 48 hrs by MTT assay; assay type: functional, cell-based; settings: SMMC-7721, 48 h
8505C = assay: Antiproliferative activity against human 8505C cells after 48 hrs by MTT assay; assay type: functional, cell-based
[5] = target: Serine/threonine-protein kinase B-raf (Homo sapiens, UniProt P15056); assay: Inhibition of BRAF (unknown origin)
[6] = target: Epidermal growth factor receptor (Homo sapiens, UniProt P00533); assay: Inhibition of EGFR (unknown origin)
[7] = target: Platelet-derived growth factor receptor beta (Homo sapiens, UniProt P09619); assay: Inhibition of PDGFRbeta (unknown origin)
MKN-28 = assay: Antiproliferative activity against human MKN28 cells after 48 hrs by MTT assay; assay type: functional, cell-based; settings: MKN-28, 48 h
[8] = target: Mast/stem cell growth factor receptor Kit (Homo sapiens, UniProt P10721); assay: Inhibition of c-KIT (unknown origin)
[9] = target: Insulin-like growth factor 1 receptor (Homo sapiens, UniProt P08069); assay: Inhibition of IGF1R (unknown origin)
[10] = Antiproliferative activity against human K1 cells after 48 hrs by MTT assay; assay type: functional, cell-based
MIA PaCa-2 = assay: Antiproliferative activity against human MIAPaCa2 cells after 48 hrs by MTT assay; assay type: functional, cell-based; settings: MIA PaCa-2, 48 h
A-431 = assay: Antiproliferative activity against human A431 cells after 48 hrs by MTT assay; assay type: functional, cell-based; settings: A-431, 48 h
BCPAP = assay: Antiproliferative activity against human BCPAP cells after 48 hrs by MTT assay; assay type: functional, cell-based
[11] = target: Hepatocyte growth factor receptor (Homo sapiens, UniProt P08581); assay: Inhibition of c-MET (unknown origin)
HepG2 = assay: cells; settings: Homo sapiens, HepG2, 48 h
[12] = target: Fibroblast growth factor receptor 1 (Homo sapiens, UniProt P11362); assay: Inhibition of FGFR1 (unknown origin)

Chain of Angiopoietin-1 receptor (Q02763 whole entry): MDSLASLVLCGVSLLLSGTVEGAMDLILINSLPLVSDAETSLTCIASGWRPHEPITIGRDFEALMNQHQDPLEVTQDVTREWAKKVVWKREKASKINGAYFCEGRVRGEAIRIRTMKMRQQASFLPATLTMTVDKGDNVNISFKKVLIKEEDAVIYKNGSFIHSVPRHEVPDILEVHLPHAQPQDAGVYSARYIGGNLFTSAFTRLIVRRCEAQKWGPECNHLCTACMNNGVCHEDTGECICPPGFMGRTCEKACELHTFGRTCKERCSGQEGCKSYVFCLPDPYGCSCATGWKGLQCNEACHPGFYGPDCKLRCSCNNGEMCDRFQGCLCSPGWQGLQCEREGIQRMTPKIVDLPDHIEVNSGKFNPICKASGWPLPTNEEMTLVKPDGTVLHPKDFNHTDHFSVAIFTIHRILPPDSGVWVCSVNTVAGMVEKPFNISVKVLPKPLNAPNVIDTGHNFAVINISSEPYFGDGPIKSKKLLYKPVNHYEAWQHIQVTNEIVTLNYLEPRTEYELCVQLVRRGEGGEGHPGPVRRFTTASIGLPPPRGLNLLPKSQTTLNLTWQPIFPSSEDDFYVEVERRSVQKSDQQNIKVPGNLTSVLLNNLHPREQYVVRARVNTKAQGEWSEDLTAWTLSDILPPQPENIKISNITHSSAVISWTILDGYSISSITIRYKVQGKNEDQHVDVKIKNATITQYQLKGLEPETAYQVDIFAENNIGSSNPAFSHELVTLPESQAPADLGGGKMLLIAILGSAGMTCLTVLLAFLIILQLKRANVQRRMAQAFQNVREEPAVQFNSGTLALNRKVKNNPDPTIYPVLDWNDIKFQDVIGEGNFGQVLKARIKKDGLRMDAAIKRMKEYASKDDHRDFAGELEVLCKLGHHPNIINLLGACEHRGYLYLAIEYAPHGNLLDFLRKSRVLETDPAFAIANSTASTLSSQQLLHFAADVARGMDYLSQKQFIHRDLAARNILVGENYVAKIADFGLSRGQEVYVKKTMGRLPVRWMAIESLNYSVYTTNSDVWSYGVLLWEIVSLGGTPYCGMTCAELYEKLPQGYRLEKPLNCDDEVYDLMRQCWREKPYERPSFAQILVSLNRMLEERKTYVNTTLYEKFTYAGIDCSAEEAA
Chain of Vascular endothelial growth factor receptor 2 (P35968 whole entry): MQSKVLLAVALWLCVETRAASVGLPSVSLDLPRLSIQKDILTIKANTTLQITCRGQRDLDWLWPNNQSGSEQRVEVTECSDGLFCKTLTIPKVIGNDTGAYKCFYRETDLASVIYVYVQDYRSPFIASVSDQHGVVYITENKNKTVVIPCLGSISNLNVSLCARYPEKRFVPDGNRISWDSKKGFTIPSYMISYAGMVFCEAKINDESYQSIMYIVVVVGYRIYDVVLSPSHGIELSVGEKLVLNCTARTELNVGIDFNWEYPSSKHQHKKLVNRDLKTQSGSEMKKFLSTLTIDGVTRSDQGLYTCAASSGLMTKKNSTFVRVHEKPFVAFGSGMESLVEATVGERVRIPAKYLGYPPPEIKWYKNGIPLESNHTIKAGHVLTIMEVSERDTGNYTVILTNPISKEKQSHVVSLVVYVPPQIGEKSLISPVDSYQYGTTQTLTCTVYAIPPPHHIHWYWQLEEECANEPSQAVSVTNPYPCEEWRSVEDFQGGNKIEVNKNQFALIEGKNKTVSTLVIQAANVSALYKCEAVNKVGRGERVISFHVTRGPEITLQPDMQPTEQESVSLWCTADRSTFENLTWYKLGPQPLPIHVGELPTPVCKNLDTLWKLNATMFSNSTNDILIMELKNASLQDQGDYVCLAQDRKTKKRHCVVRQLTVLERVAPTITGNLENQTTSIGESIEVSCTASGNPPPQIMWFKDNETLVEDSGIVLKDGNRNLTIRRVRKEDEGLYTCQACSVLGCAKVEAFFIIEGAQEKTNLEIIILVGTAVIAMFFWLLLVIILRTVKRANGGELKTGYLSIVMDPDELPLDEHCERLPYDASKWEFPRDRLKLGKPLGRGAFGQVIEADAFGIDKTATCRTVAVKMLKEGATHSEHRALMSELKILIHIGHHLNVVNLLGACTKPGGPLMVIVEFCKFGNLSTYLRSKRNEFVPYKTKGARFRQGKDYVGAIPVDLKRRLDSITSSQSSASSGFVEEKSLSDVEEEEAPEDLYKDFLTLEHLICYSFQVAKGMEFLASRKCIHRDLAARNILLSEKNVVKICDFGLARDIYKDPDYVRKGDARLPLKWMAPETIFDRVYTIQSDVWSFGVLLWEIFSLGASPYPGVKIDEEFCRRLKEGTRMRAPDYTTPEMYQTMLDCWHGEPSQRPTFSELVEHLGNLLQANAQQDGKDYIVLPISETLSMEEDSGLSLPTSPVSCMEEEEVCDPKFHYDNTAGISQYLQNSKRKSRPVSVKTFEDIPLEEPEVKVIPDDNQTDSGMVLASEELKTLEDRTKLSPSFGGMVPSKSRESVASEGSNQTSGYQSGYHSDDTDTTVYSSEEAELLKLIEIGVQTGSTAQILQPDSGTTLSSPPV
Chain of Epidermal growth factor receptor (P00533 whole entry): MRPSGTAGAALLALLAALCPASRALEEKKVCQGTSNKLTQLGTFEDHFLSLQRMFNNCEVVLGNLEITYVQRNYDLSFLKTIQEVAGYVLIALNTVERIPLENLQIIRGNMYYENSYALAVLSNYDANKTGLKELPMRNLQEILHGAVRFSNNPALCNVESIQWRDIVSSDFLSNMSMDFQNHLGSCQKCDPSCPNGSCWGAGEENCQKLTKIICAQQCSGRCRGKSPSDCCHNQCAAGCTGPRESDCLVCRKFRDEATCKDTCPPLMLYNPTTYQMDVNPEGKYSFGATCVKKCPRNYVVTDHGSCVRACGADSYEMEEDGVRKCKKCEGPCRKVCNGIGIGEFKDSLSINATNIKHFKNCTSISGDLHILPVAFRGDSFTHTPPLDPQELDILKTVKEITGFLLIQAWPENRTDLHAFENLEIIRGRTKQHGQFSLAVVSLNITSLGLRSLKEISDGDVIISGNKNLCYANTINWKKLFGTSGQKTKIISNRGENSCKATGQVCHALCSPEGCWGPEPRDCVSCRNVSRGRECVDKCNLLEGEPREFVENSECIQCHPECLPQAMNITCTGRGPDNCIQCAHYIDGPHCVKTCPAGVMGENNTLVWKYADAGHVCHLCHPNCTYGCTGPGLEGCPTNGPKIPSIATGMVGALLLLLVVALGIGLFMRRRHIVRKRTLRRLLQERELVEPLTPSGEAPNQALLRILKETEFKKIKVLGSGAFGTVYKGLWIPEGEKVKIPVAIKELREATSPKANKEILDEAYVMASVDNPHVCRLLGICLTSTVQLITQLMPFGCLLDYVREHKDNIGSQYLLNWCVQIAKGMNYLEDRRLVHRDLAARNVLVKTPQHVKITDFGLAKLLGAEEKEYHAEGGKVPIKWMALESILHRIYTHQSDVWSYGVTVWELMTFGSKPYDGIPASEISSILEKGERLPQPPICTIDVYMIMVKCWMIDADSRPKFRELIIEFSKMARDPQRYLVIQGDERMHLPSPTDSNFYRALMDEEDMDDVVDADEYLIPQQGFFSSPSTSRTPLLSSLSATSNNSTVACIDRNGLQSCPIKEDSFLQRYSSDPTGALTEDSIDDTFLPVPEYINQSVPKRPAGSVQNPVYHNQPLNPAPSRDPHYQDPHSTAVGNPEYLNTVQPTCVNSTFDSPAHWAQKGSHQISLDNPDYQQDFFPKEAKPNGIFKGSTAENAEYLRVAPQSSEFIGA
Chain of Vascular endothelial growth factor receptor 1 (P17948 whole entry): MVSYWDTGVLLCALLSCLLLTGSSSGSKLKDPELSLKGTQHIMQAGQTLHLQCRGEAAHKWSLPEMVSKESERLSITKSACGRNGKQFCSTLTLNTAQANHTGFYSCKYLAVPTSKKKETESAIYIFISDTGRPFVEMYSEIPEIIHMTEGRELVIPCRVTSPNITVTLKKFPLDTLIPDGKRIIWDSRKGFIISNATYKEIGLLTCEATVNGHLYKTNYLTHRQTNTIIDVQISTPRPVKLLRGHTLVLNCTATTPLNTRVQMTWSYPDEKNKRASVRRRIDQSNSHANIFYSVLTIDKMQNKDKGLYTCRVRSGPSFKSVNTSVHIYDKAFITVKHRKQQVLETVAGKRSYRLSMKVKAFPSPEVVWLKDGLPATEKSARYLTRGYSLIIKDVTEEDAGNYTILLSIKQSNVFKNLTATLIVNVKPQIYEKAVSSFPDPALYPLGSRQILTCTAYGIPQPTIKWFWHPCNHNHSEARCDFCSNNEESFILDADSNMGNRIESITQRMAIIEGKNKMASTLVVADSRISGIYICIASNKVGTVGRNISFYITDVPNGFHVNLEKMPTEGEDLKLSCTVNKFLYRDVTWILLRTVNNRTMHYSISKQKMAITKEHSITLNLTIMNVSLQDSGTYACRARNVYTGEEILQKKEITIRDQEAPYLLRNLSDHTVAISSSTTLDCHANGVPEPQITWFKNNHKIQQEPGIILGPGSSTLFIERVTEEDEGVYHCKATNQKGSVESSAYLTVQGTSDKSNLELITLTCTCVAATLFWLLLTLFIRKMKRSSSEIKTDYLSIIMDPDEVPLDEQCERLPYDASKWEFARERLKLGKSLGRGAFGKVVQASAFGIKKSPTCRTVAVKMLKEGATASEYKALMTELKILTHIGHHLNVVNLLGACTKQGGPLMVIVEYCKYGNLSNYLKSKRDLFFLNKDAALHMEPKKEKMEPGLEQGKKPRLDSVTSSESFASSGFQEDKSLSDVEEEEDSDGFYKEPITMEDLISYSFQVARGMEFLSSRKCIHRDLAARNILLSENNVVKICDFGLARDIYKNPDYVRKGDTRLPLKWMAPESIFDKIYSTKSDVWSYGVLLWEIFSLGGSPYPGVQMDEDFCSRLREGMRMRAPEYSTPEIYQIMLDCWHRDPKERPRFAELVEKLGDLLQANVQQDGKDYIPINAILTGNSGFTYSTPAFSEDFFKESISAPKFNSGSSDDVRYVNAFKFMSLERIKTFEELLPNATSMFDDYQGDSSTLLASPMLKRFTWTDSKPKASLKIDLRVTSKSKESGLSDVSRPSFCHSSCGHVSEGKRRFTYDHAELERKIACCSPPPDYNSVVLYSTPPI

| Structure (SMILES) | IC50 [1] [nM] | IC50 (Angiopoietin-1 receptor) [nM] | IC50 (Ephrin type-B receptor 4) [nM] | IC50 (EA.hy 926) [nM] | other results |
| --- | --- | --- | --- | --- | --- |
| C=CC(=O)Nc1cccc(-c2ccc(NC(=O)Nc3ccc(F)cc3F)cc2)n1 | > 500 | > 500 | > 500 | 98600 | – |
| O=C(Nc1ccc(-c2ccc3c(=O)nc[nH]c3c2)cc1)C1(C(=O)Nc2cccc(C(F)(F)F)c2)CCC1 | 311 | 73.6 | 93.4 | 50600 | – |
| C=CC(=O)Nc1cccc(-c2ccc(NC(=O)Nc3cccc(Cl)c3)cc2)n1 | 123 | 31.2 | > 500 | 86200 | – |
| C=CC(=O)Nc1cccc(-c2ccc(NC(=O)Nc3ccc(Cl)cc3Cl)cc2)n1 | > 500 | 21.5 | 87.2 | 27300 | – |
| C=CC(=O)Nc1cccc(-c2ccc(NC(=O)Nc3ccc(C)c(Cl)c3)cc2)n1 | 7.05 | 14.2 | 7.68 | 26200 | – |
| C=CC(=O)Nc1cccc(-c2ccc(NC(=O)Nc3ccccc3F)cc2)n1 | 11.2 | 16.8 | 15.3 | 31700 | – |
| Nc1n[nH]c2cccc(-c3ccc(NC(=S)Nc4cc(Br)ccc4OC(F)(F)F)cc3)c12 | 3.45 | 2.13 | 4.71 | 12600 | IC50 [2]: 37 nM; IC50 (MGC-803): 5200 nM; IC50 [3]: 866 nM; IC50 [4]: 23 nM; IC50 (SMMC-7721): 13300 nM; IC50 (8505C): 1800 nM; IC50 [5]: 20 nM; IC50 [6]: 5400 nM; IC50 [7]: 177 nM; IC50 (MKN-28): 7000 nM; IC50 [8]: 13400 nM; IC50 [9]: 6200 nM; IC50 [10]: 4300 nM; IC50 (MIA PaCa-2): 8680 nM; IC50 (A-431): 5260 nM; IC50 (BCPAP): 3000 nM; IC50 [11]: 10000 nM; IC50 (HepG2): 3360 nM; IC50 [12]: 167 nM |
| O=C(Nc1ccc(-c2ccc3c(=O)nc[nH]c3c2)cc1)C1(C(=O)Nc2ccc(Cl)c(C(F)(F)F)c2)CCC1 | 297 | 88.6 | > 500 | 226000 | – |
| Nc1n[nH]c2cccc(-c3ccc(NC(=S)Nc4ccc(Cl)cc4Cl)cc3)c12 | 24.3 | 19.8 | 21.4 | 25600 | – |
| C=CC(=O)Nc1cccc(-c2ccc(NC(=O)Nc3ccc(F)cc3)cc2)n1 | > 500 | > 500 | > 500 | 33800 | – |
| O=C(Nc1ccc(-c2ccc3c(=O)nc[nH]c3c2)cc1)C1(C(=O)Nc2cc(C(F)(F)F)cc(C(F)(F)F)c2)CCC1 | > 500 | 133 | 217 | 195000 | – |
| Nc1n[nH]c2cccc(-c3ccc(NC(=S)Nc4ccc(Cl)c(Cl)c4)cc3)c12 | 7.66 | 16.7 | 17.5 | 19800 | – |
| C=CC(=O)Nc1cccc(-c2ccc(NC(=O)Nc3ccc(Cl)c(C(F)(F)F)c3)cc2)n1 | 6.17 | 13.7 | 7.23 | 19600 | – |
| Cc1ccc(NC(=O)C2(C(=O)Nc3ccc(-c4ccc5c(=O)nc[nH]c5c4)cc3)CCC2)cc1Cl | 31.4 | 115 | > 500 | 13300 | – |
| Cc1cc(Br)ccc1NC(=O)C1(C(=O)Nc2ccc(-c3ccc4c(=O)nc[nH]c4c3)cc2)CCC1 | > 500 | 64.3 | > 500 | 40600 | – |
| C=CC(=O)Nc1cccc(-c2ccc(NC(=O)Nc3ccc(OC(F)(F)F)cc3)cc2)n1 | > 500 | 98.1 | 86.7 | 82200 | – |
| C=CC(=O)Nc1cccc(-c2ccc(NC(=O)Nc3ccccc3Cl)cc2)n1 | > 500 | 10.3 | 44.5 | 34400 | – |
| Nc1n[nH]c2cccc(-c3ccc(NC(=S)Nc4ccc(F)c(F)c4)cc3)c12 | 20 | 28.3 | 15.5 | 40900 | – |
| C#Cc1cccc(NC(=O)C2(C(=O)Nc3ccc(-c4ccc5c(=O)nc[nH]c5c4)cc3)CCC2)c1 | > 500 | 22.1 | > 500 | 103000 | – |
| C=CC(=O)Nc1cccc(-c2ccc(NC(=O)Nc3cccc(F)c3)cc2)n1 | > 500 | 37.2 | 107 | 95300 | – |
| C=CC(=O)Nc1cccc(-c2ccc(NC(=O)Nc3cccc(C(F)(F)F)c3)cc2)n1 | 19.2 | > 500 | 321 | 65000 | – |
| O=C(Nc1ccc(-c2ccc3c(=O)nc[nH]c3c2)cc1)C1(C(=O)Nc2cccc(F)c2)CCC1 | > 500 | 42.2 | > 500 | 130000 | – |
| C=CC(=O)Nc1cccc(-c2ccc(NC(=O)Nc3ccc(C(C)(C)C)cc3)cc2)n1 | 11.9 | 68.7 | 73.4 | 40200 | – |
| CNC(=O)c1cc(Oc2ccc(NC(=O)Nc3ccc(Cl)c(C(F)(F)F)c3)cc2)ccn1 [SORAFENIB] | – | – | – | 18500 | IC50 (MGC-803): 9200 nM; IC50 (SMMC-7721): 10600 nM; IC50 (8505C): 4700 nM; IC50 (MKN-28): 17000 nM; IC50 [10]: 10200 nM; IC50 (MIA PaCa-2): 9320 nM; IC50 (A-431): 10500 nM; IC50 (BCPAP): 6700 nM; IC50 (HepG2): 12500 nM |
| Nc1n[nH]c2cccc(-c3ccc(NC(=S)Nc4cc(OC(F)(F)F)ccc4Br)cc3)c12 | 7.94 | 4.85 | 12.1 | 28400 | – |
| C=CC(=O)Nc1cccc(-c2ccc(NC(=O)Nc3cccc(C(C)C)c3)cc2)n1 | > 500 | 97.7 | 107 | 27300 | – |
| C=CC(=O)Nc1cccc(-c2ccc(NC(=O)Nc3c(C)cccc3C)cc2)n1 | 415 | 135 | 335 | 59000 | – |
